# Data reported in patent US20260217701A1, “SELECTIVE BET INHIBITORS AND USES THEREOF” (Tay Therapeutics Limited, priority 2022, published 2026).
# Read-outs that look alike come from different tables or passages of the source.
# Assays:
# BET BD2 = conditions: public sources, not a head-to-head trial, cited from earlier work; for BD2: comparator BET inhibitors; for Selectivity (BD1/BD2): comparator
# BRD4 BD2 = target: T1, BRD4 BD2 (Homo sapiens, UniProt O60885); experiment: NanoBRET bromodomain assay, NanoLuc-BRD4-BD2 in HEK293 cells; assay type: binding; conditions: for Fold Selectivity BRD4 BD1/BD2: IC50 BD1/IC50 BD2, qualitative if an IC50 is at the upper limit
# T1 construct: HEK293 cells were transfected using NanoLuc-BRD4-BD1 or NanoLuc-BRD4-BD2 fusion vectors
# Description: (§1) Plates were then incubated at 37° C.+5% CO2 incubator for 2 hours.
# (§2) Fold Selectivity Calculated (IC50 BD1/IC50 BD2).
# BRD4 BD1 = target: T2, BRD4 BD1 (Homo sapiens, UniProt O60885); experiment: NanoBRET bromodomain assay, NanoLuc-BRD4-BD1 in HEK293 cells; assay type: binding
# T2 construct: HEK293 cells were transfected using NanoLuc-BRD4-BD1 or NanoLuc-BRD4-BD2 fusion vectors
# Description: Exemplary compounds of the disclosure are active against BRD4 BD2 and selective over BRD4 BD1. BRD4 is a representative example of the BET family, as the binding sites of all BET family members are structurally similar. […] IC50s and fold selectivity's are determined as described below and are represented in Table 1.
# as §1, §2
# [1] = system: idiopathic pulmonary fibrosis (bleomycin); experiment: Bleomycin IPF model: functional lung volume by micro-CT; assay type: in vivo, C57BI/6J mice; design: Functional Lung Volume, Mean: unit not given here; conditions: Day 21
# Description: Animals were acclimated for two weeks prior to study initiation, and were randomized into the experimental groups outlined in Table 32. Intratracheal (IT) administration of Bleo or PBS control was conducted at the start of the study (Day 0). […] Following administration of Bleo, animals (n=10/group) were included in the study if they met the following guidelines on Day 7: […] Micro-CT imaging was also performed on Day 7 to determine relative fibrosis and on Day 21. […] Images were acquired with a respiratory gated technique with the following parameters: X-ray tube voltage: 90 KV; X-ray tube current: 88 μA; total scan time: 4 minutes. The system was calibrated monthly with standard phantoms for noise, uniformity, low contrast, and resolution to ensure consistency.
# [2] = system: idiopathic pulmonary fibrosis (bleomycin); experiment: Bleomycin IPF model: lung histology, Masson's Trichrome with Ashcroft scoring; assay type: in vivo, C57BI/6J mice
# Description: Animals were acclimated for two weeks prior to study initiation, and were randomized into the experimental groups outlined in Table 32. Intratracheal (IT) administration of Bleo or PBS control was conducted at the start of the study (Day 0). […] Following administration of Bleo, animals (n=10/group) were included in the study if they met the following guidelines on Day 7: […] A resection of the right lung was weighed and homogenized to determine total hydroxyproline levels by colorimetric assay, and the remaining lung lysate was saved for future analyses. For the morphological assessments, the left lung was inflation-fixed at 25 cm of water pressure with 4% paraformaldehyde in PBS for 1 minute, processed, and then sectioned. Morphological analysis of the lung was conducted using H&E-stained slides. Additional histologic stains for morphological analyses included Masson's Trichrome staining with Ashcroft scoring to determine severity of fibrosis.
# [3] = Bleomycin IPF model: body weight and mortality; assay type: in vivo, C57BI/6J mice; design: Mean Body Weight Change: unit not given here; conditions: for Mean Body Weight Change: Bleo + Pirfenidone (300 mg/kg) OG QOD from D7
# Description: (§3) Male C57BI/6J mice, aged 12 weeks with an approximate weight of 25-30 g were obtained from Jackson Laboratories (Bar Harbor, ME). Animals were acclimated for two weeks prior to study initiation, and were randomized into the experimental groups outlined in Table 32.
# (§4) Intratracheal (IT) administration of Bleo or PBS control was conducted at the start of the study (Day 0). […] Animals were weighed on Day 0, and indexed boluses of PBS control (Group 1) or Bleo (Groups 2-6) were delivered by IT administration.
# Following administration of Bleo, animals (n=10/group) were included in the study if they met the following guidelines on Day 7: (1) a predictable 5% loss in body weight, and (2) the presence of fibrotic pulmonary lesions, detected by micro-CT imaging. 10 animals from Group 1 additionally proceeded as controls. Animals that continued in the study on Day 7 received an oral gavage (OG) administration of PBS, Compound A (1 mg/kg, 3 mg/kg, 10 mg/kg), or Pirfenidone (300 mg/kg), as outlined in Table 31 in 25 μL boluses every other day (QOD), starting on Day 7. Compound A was formulated in 5% (v/v) DMSO/15% (v/v) PEG 400/80% (v/v) E-TPGS in purified water. […]
# hydroxyproline = experiment: Bleomycin IPF model: hydroxyproline content in lung lysates; assay type: in vivo, C57BI/6J mice; design: Hydroxyproline Levels, Mean: unit not given here; conditions: Bleo + Pirfenidone (300 mg/kg) OG QOD from D7
# Description: as §3, §4
# (§5) Following administration of Bleo, animals (n=10/group) were included in the study if they met the following guidelines on Day 7: (1) a predictable 5% loss in body weight, and (2) the presence of fibrotic pulmonary lesions, detected by micro-CT imaging. 10 animals from Group 1 additionally proceeded as controls. Animals that continued in the study on Day 7 received an oral gavage (OG) administration of PBS, Compound A (1 mg/kg, 3 mg/kg, 10 mg/kg), or Pirfenidone (300 mg/kg), as outlined in Table 31 in 25 μL boluses every other day (QOD), starting on Day 7. Compound A was formulated in 5% (v/v) DMSO/15% (v/v) PEG 400/80% (v/v) E-TPGS in purified water.
# Animals were euthanized on Day 21 following Micro-CT imaging, and the right lung was collected for biochemical analysis, and the left lung was inflation-fixed for morphological assessments. A resection of the right lung was weighed and homogenized to determine total hydroxyproline levels by colorimetric assay, and the remaining lung lysate was saved for future analyses.
# [4] = system: idiopathic pulmonary fibrosis (bleomycin); experiment: Bleomycin IPF model: oxygen saturation (pulse oximetry); assay type: in vivo, C57BI/6J mice; conditions: Bleo + Pirfenidone (300 mg/kg) OG QOD from D7
# Description: as §3, §4, §5
# Body weights were obtained at Day 0 at the start of the study, and again at Day 7 to determine if an animal continued in the study. Body weight was measured daily from Day 7 until Day 21, and oxygen saturation was measured by a pulse oximetry (MouseOx) system QOD from Day 7 until study completion on Day 21, and results were plotted and analyzed by Kaplan-Meier plots.
# [5] = Bleo + Pirfenidone (300 mg/kg) OG QOD from D7
molecule,measurement,setting,value
CNc1nc(-c2nc3ccc(N4CCN(C)CC4)cc3n2Cc2ccccc2)cn2c(C)nnc12 [BI-894999],BD2,BET BD2,41 nM
same,Selectivity (BD1/BD2),BET BD2; nanoBRET assay,0.1x
Cc1cccc(C)c1Oc1cn(C)c(=O)cc1-c1cn(C)c(=O)c2[nH]c(-c3ccc(OC(F)F)cc3F)cc12 [Example 97],IC50,BRD4 BD2,10 to 50 nM
same,Fold Selectivity BRD4 BD1/BD2,BRD4 BD2,xxx (Fold >200 and ≤1000)
same,IC50,BRD4 BD1,> 1000 nM
Cc1cccc(C)c1Oc1cn(C)c(=O)cc1-c1cn(C)c(=O)c2[nH]c(-c3cccc(C(F)(F)F)c3F)cc12 [Example 98],IC50,BRD4 BD2,50 to 200 nM
same,Fold Selectivity BRD4 BD1/BD2,BRD4 BD2,xx (Fold >50 and ≤200)
same,IC50,BRD4 BD1,> 1000 nM
Cc1cccc(-c2cc3c(-c4cc(=O)n(C)cc4Oc4c(C)cccc4C)cn(C)c(=O)c3[nH]2)c1F [Example 99],IC50,BRD4 BD2,10 to 50 nM
same,Fold Selectivity BRD4 BD1/BD2,BRD4 BD2,xxx (Fold >200 and ≤1000)
same,IC50,BRD4 BD1,> 1000 nM
Cc1sc2c(c1C)C(c1ccc(Cl)cc1)=N[C@@H](CC(=O)Nc1ccc(O)cc1)c1nnc(C)n1-2 [MK-8628/OTX-015],BD2,BET BD2,26 nM
same,Selectivity (BD1/BD2),BET BD2; nanoBRET assay,1.5x
Cc1noc2c1-c1ccccc1C(c1ccc(Cl)cc1)=N[C@H]2CC(N)=O [Pelabresib],Selectivity (BD1/BD2),BET BD2; FRET,5x (FRET)
same,BD2,BET BD2,17 nM
"Cc1ccc(=O)n(-c2ccccc2)c1 [Pirfenidone, reference compound]","Functional Lung Volume, Mean",[1]; [5],445.7025
same,Functional lung volume relative to Group 2,"[1]; Group 6, Pirfenidone 300 mg/kg",significantly increased
same,"Ashcroft Scoring, Max",[2]; [5],6
same,"Ashcroft Scoring, Mean",[2]; [5],5.125
same,"Ashcroft Scoring, Min",[2]; [5],4
same,Ashcroft scores relative to IPF control group,"[2]; Day 21, Group 6, 300 mg/kg",significantly reduced Ashcroft scores
same,Fibrosis in lung tissue (Masson's Trichrome) compared to Group 2 (Bleo+Saline),[2]; Group 5 (Compound A 10) and Group 6 (Pirfenidone),qualitatively diminished
same,Mean Body Weight Change,[3]; Day 1,2.308
same,Mean Body Weight Change,[3]; Day 2,−0.484
same,Mean Body Weight Change,[3]; Day 3,0.051
same,Mean Body Weight Change,[3]; Day 4,4.604
same,Mean Body Weight Change,[3]; Day 5,−5.992
same,Mean Body Weight Change,[3]; Day 6,−9.221
same,Mean Body Weight Change,[3]; Day 7,−11.372
same,Mean Body Weight Change,[3]; Day 8,−14.446
same,Mean Body Weight Change,[3]; Day 9,−14.694
same,Mean Body Weight Change,[3]; Day 10,−15.574
same,Mean Body Weight Change,[3]; Day 11,−14.209
same,Mean Body Weight Change,[3]; Day 12,−13.437
same,Mean Body Weight Change,[3]; Day 13,−12.258
same,Mean Body Weight Change,[3]; Day 14,−12.644
same,Mean Body Weight Change,[3]; Day 15,−13.627
same,Mean Body Weight Change,[3]; Day 16,−13.391
same,Mean Body Weight Change,[3]; Day 17,−13.251
same,Mean Body Weight Change,[3]; Day 18,−15.138
same,Mean Body Weight Change,[3]; Day 19,−14.921
same,Mean Body Weight Change,[3]; Day 20,−15.674
same,Mean Body Weight Change,[3]; Day 21,−15.557
same,Body weight compared with Bleo+Saline treated animals,"[3]; Compound A (all doses tested), Pirfenidone (300 mg/kg)",No significant difference
same,"Hydroxyproline Levels, Mean",hydroxyproline,0.055
same,Mean Oxygen Saturation,[4]; Day 7,81.08
same,Mean Oxygen Saturation,[4]; Day 9,84.55
same,Mean Oxygen Saturation,[4]; Day 11,83.32
same,Mean Oxygen Saturation,[4]; Day 13,84.28
same,Mean Oxygen Saturation,[4]; Day 15,87.03
same,Mean Oxygen Saturation,[4]; Day 17,87.08
same,Mean Oxygen Saturation,[4]; Day 19,89.13
same,Mean Oxygen Saturation,[4]; Day 21,89.18
NUV-868,Selectivity (BD1/BD2),BET BD2; FRET,"1,460x (FRET)"
same,BD2,BET BD2,2 nM
